In brackets after ≈: the same amount, converted by molar mass. Like-named read-outs stand apart in the source and are kept apart here.
Assays:
[1] = test system: herpes simplex virus (HSV); test: Plaque titration: reduction of plaque size and plaque number of herpes simplex virus in human fetal fibroblasts; assay type: cell-based; conditions: for IC25 / IC50 / IC75: Fibroblast, human fetal fibroblasts, 48 h
Description: Herpes simplex virus (HSV) strains were grown and titrated at 36° C. in human fetal fibroblasts derived from fetal tissues, and used for virus work before the tenth passage. Cells were grown and maintained in basal medium Eagle (BME; Auto-Pow, Flow Laboratories) supplemented with 0.112% sodium bicarbonate, 2 mM 1-glutanine, 2 mg neomycin per 100 ml and 5-20% calf serum. 5% BME, as described hereafter, indicates medium containing 5 ml of calf serum in a total volume of 100 ml.
The titer of the HSV strains is determined by a plaque titration method (Roizman & Roane, "Virology", 15, 75-79, 1961). Tissue culture dishes are seeded with cells and used for assays when approximately 75% monolayer. Volumes (0.2 ml) of logarithmic dilutions of the strain are inoculated onto each of two tissue culture dishes, and adsorbed for 1 hr. with intermittent shaking, the inoculum removed, and 2 ml of 5% BME containing 0.5% human immune serum globulin added. After a 48 hour incubation period at 36° C. in a 5% CO2 atmosphere, the overlay medium is removed and the cell sheets stained with a 0.05% aqueous crystal violet solution. The number of plaques is counted, the duplicates averaged, and the number of plaque-forming units calculated.
The compounds are tested for activity against the herpes simplex strains using a stock solution of each compound freshly prepared by dissolving 1.2 mg in BME. Appropriate dilution of each compound are made in 5% BME containing 0.5% human immune serum globulin just before usage.
Tissue culture dishes (35 by 10 mm) with approximately 75% cell monolayer are inoculated with approximately 50 plaque-forming units of HSV per 0.2 ml, and the virus adsorbed for 1 hour, with intermittent shaking. After removal of the inoculum, 2 ml of 5% BME with 0.5% immune globulin and three-fold dilutions of the appropriate drug are added. One set of dishes receives no drug and is used as a control. After a 48-hour incubation period, at 36° C. in a 5% CO2 atmosphere, the overlay medium is removed, the cells stained as described above, and plaques counted. The counts of replicate plates are averaged, and the number of plaques emerging in the presence of each drug dilution is calculated. The reduction in plaque size caused by the concentration of the drug, as compared with the relevant control, is also measured, visually. […] A reduction in the area of the growing plaque indicates inhibition of plaque growth, i.e. inhibition of viral reproduction, caused by the drug.

[2] = test system: human fetal fibroblasts / mammalian cells; test: Toxicity to host cells; assay type: cell-based; conditions: at the dosage level active against HSV and CMV
[3] = Toxicity to host cells; assay type: cell-based, human; conditions: in the HSV test; human fetal fibroblasts; read-out: concentration up to which no evidence of toxicity was shown
[4] = test system: cytomegalovirus (CMV); test: CMV plaque (microplaque/ELISA) assay in human fetal fibroblast (lung) HFF cells; assay type: cell-based; conditions: at a dosage level non-toxic to mammalian cells
Description: The compounds of example 3, (5-aza-C*) was tested in vitro for activity against cytomegalovirus, CMV, in mammalian cells. Human fetal fibroblast (lung) HFF cells were used, in generally standard viral plaque titration methods.
Human fetal fibroblast (lung) HFF cells were used, in generally standard viral plaque titration methods. The cells were grown and maintained in Basal Medium Eagle (BME) supplemented with 0.112% sodium bicarbonate, 2 mM L-glutamine, 2 mg % neomycin and 20% (vol/vol) calf serum.
A viral plaque titration method (Roizman & Roane, 1961) was used to determine the virus titre of the CMV. 35 mm tissue culture plates were seeded with HFF 36 P5 and grown to 50-70% monolayer. […]
The cells were incubated for 72 hours at 37° C. in 5% carbon dioxide atmosphere. At 75 hours, the number of CMV infected foci (microplaques) was quantitated using enzyme linked immunosorbent assay (ELISA) using as an enzyme tag horseradish peroxidase and DAB substrate so as to stain the infected foci with a brown precipitate. […]
CMV-positive human serum was diluted 1:10 with PBS, and 0.2 ml of the diluted serum was put in each plate and the plate shaken for 30 minutes. […] Plaques were counted, and numbers of plaques per microscopic field determined.
The reading of the CMV assay was done by comparing no-drug controls to the drug treated plates. […]

[5] = test system: herpes simplex virus (HSV); conditions: disclosed in U.S. Pat. No. 4,347,360; cited from earlier work
[6] = read-out: concentration reducing plaque numbers by 25%
[7] = read-out: concentration reducing plaque numbers by 50%
[8] = read-out: concentration reducing plaque size by 25%
[9] = read-out: concentration reducing plaque size by 50%

SMILES | activity against HSV (in words) [1] | toxicity to mammalian cells (in words) [2] | MNTC at 48 h [3] [µg/mL] | activity against CMV (in words) [4] | IC25 [1, 6] [µg/mL] | IC50 [1, 7] [µg/mL] | IC75 ([1]; read-out: concentration reducing plaque numbers by 75%) [µg/mL] | IC25 [1, 8] [µg/mL] | IC50 [1, 9] [µg/mL] | IC75 ([1]; read-out: concentration reducing plaque size by 75%) [µg/mL] | activity against HSV (in words) ([1]; listed as 5-aza-1-[[1-hydroxymethyl(2-hydroxy)ethoxy]methyl]cytosine) | activity against herpes simplex virus (in words) [5]
Nc1ccn(COC(COCc2ccccc2)COCc2ccccc2)c(=O)n1 [dibenzyl-C*, 1-[[2-benzyloxy-1-(benzyloxymethyl)]ethoxymethyl]cytosine] | exhibited activity against HSV, but to a lesser extent | – | – | – | – | – | – | – | – | – | – | –
Nc1ncn(COC(CO)CO)c(=O)n1 [5-aza-C*, 5-aza-1-[[1-hydroxymethyl-[2-hydroxy]-ethoxy]methyl]cytosine] | high activity against the HSV | non-toxic to mammalian cells | > 304 | active | 8 (≈ 37 µM) | 30 (≈ 139 µM) | 140 (≈ 648 µM) | 5 (≈ 23.1 µM) | 30 (≈ 139 µM) | 110 (≈ 509 µM) | active against herpes simplex virus HSV | –
O=c1[nH]c(=O)n(COC(COCc2ccccc2)COCc2ccccc2)cc1F [5F-benzyl-U*, 1-[[2-benzyloxy-1-(benzyloxymethyl)ethoxy]methyl]-5-fluorouracil] | showed activity against HSV | – | > 110 | – | 70 (≈ 169 µM) | 110 (≈ 265 µM) | – | 10 (≈ 24.1 µM) | 50 (≈ 121 µM) | – | – | –
Nc1ncnc2c1ncn2COC(CO)CO [9-[[2-hydroxy-1-(hydroxymethyl)ethoxy]-methyl]adenine] | – | – | – | – | – | – | – | – | – | – | – | active against herpes simplex virus

Reference: patent publication US4501744A, “Substituted-aza-cytosine compounds and anti-viral uses thereof” (ens BIO LOGICALS Inc., priority 1983, dated 1985)
